Data taken from the supplement of paper PMC10307832.

Experiments:
Assay in all cases: relative viability (nuclei count vs DMSO), 5 days (fraction); higher = more cells survive
JZL-184 = compound: C1CN(CCC1C(C2=CC3=C(C=C2)OCO3)(C4=CC5=C(C=C4)OCO5)O)C(=O)OC6=CC=C(C=C6)[N+](=O)[O-] [JZL-184]
Procedure, shortened: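 A plate was accepted only when its control CV was below 25% and the cells had doubled at least once. Viability is defined from nuclear counts as treated wells divided by vehicle wells, with the median taken across plates. That median covers lung cancer cell lines grown in 1536-well plates, dosed by pinning at five √10-spaced library-drug concentrations, and counted in MetaXpress from 4× Hoechst images after 5 days.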

JZL-184 + Vorinostat = compound: C1CN(CCC1C(C2=CC3=C(C=C2)OCO3)(C4=CC5=C(C=C4)OCO5)O)C(=O)OC6=CC=C(C=C6)[N+](=O)[O-] [JZL-184] + O=C(CCCCCCC(=O)Nc1ccccc1)NO [Vorinostat] (partner 1 µM)
Procedure, shortened: (§1)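 One day after seeding in 1536-well plates, lung cancer cell lines were dosed by pin tool. Dosing was either single-drug or a fixed anchor-drug dose plus five library-drug doses (not always all listed) in √10 steps. After 5 days, nuclei were stained in one fix-and-stain step and counted on 4× images, and relative viability is the nuclei count of treated wells over that of vehicle wells, given as the median of duplicate plates.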

JZL-184 + Pemetrexed = compound: C1CN(CCC1C(C2=CC3=C(C=C2)OCO3)(C4=CC5=C(C=C4)OCO5)O)C(=O)OC6=CC=C(C=C6)[N+](=O)[O-] [JZL-184] + Nc1nc2[nH]cc(CCc3ccc(C(=O)N[C@@H](CCC(=O)O)C(=O)O)cc3)c2c(=O)[nH]1 [Pemetrexed] (partner 0.2 µM)
Procedure, shortened: as §1

JZL-184 + Olaparib = compound: C1CN(CCC1C(C2=CC3=C(C=C2)OCO3)(C4=CC5=C(C=C4)OCO5)O)C(=O)OC6=CC=C(C=C6)[N+](=O)[O-] [JZL-184] + O=C(c1cc(Cc2n[nH]c(=O)c3ccccc23)ccc1F)N1CCN(C(=O)C2CC2)CC1 [Olaparib] (partner 8 µM)
Procedure, shortened: as §1

JZL-184 + Tozasertib = compound: C1CN(CCC1C(C2=CC3=C(C=C2)OCO3)(C4=CC5=C(C=C4)OCO5)O)C(=O)OC6=CC=C(C=C6)[N+](=O)[O-] [JZL-184] + Cc1cc(Nc2cc(N3CCN(C)CC3)nc(Sc3ccc(NC(=O)C4CC4)cc3)n2)n[nH]1 [Tozasertib] (partner 0.1 µM)
Procedure, shortened: as §1

JZL-184 + Decitabine = compound: C1CN(CCC1C(C2=CC3=C(C=C2)OCO3)(C4=CC5=C(C=C4)OCO5)O)C(=O)OC6=CC=C(C=C6)[N+](=O)[O-] [JZL-184] + Nc1ncn([C@H]2C[C@H](O)[C@@H](CO)O2)c(=O)n1 [Decitabine] (partner 2 µM)
Procedure, shortened: as §1

JZL-184 + Trametinib = compound: C1CN(CCC1C(C2=CC3=C(C=C2)OCO3)(C4=CC5=C(C=C4)OCO5)O)C(=O)OC6=CC=C(C=C6)[N+](=O)[O-] [JZL-184] + CC(=O)Nc1cccc(-n2c(=O)n(C3CC3)c(=O)c3c(Nc4ccc(I)cc4F)n(C)c(=O)c(C)c32)c1 [Trametinib] (partner 0.02 µM)
Procedure, shortened: as §1

JZL-184 + Palbociclib = compound: C1CN(CCC1C(C2=CC3=C(C=C2)OCO3)(C4=CC5=C(C=C4)OCO5)O)C(=O)OC6=CC=C(C=C6)[N+](=O)[O-] [JZL-184] + CC(=O)c1c(C)c2cnc(Nc3ccc(N4CCNCC4)cn3)nc2n(C2CCCC2)c1=O [Palbociclib] (partner 0.5 µM)
Procedure, shortened: as §1

JZL-184 + AZD7762 = compound: C1CN(CCC1C(C2=CC3=C(C=C2)OCO3)(C4=CC5=C(C=C4)OCO5)O)C(=O)OC6=CC=C(C=C6)[N+](=O)[O-] [JZL-184] + NC(=O)Nc1cc(-c2cccc(F)c2)sc1C(=O)N[C@H]1CCCNC1 [AZD7762] (partner 0.2 µM)
Procedure, shortened: as §1

JZL-184 + OSI-027 = compound: C1CN(CCC1C(C2=CC3=C(C=C2)OCO3)(C4=CC5=C(C=C4)OCO5)O)C(=O)OC6=CC=C(C=C6)[N+](=O)[O-] [JZL-184] + COc1cccc2cc(-c3nc([C@H]4CC[C@H](C(=O)O)CC4)n4ncnc(N)c34)[nH]c12 [OSI-027] (partner 0.5 µM)
Procedure, shortened: as §1

JZL-184 + Bortezomib = compound: C1CN(CCC1C(C2=CC3=C(C=C2)OCO3)(C4=CC5=C(C=C4)OCO5)O)C(=O)OC6=CC=C(C=C6)[N+](=O)[O-] [JZL-184] + CC(C)C[C@H](NC(=O)[C@H](Cc1ccccc1)NC(=O)c1cnccn1)B(O)O [Bortezomib] (partner 0.002 µM)
Procedure, shortened: as §1

JZL-184 + Pictilisib = compound: C1CN(CCC1C(C2=CC3=C(C=C2)OCO3)(C4=CC5=C(C=C4)OCO5)O)C(=O)OC6=CC=C(C=C6)[N+](=O)[O-] [JZL-184] + CS(=O)(=O)N1CCN(Cc2cc3nc(-c4cccc5[nH]ncc45)nc(N4CCOCC4)c3s2)CC1 [Pictilisib] (partner 1 µM)
Procedure, shortened: as §1

JZL-184 + Navitoclax = compound: C1CN(CCC1C(C2=CC3=C(C=C2)OCO3)(C4=CC5=C(C=C4)OCO5)O)C(=O)OC6=CC=C(C=C6)[N+](=O)[O-] [JZL-184] + CC1(C)CCC(c2ccc(Cl)cc2)=C(CN2CCN(c3ccc(C(=O)NS(=O)(=O)c4ccc(N[C@H](CCN5CCOCC5)CSc5ccccc5)c(S(=O)(=O)C(F)(F)F)c4)cc3)CC2)C1 [Navitoclax] (partner 0.5 µM)
Procedure, shortened: as §1

JZL-184 + Foretinib = compound: C1CN(CCC1C(C2=CC3=C(C=C2)OCO3)(C4=CC5=C(C=C4)OCO5)O)C(=O)OC6=CC=C(C=C6)[N+](=O)[O-] [JZL-184] + COc1cc2c(Oc3ccc(NC(=O)C4(C(=O)Nc5ccc(F)cc5)CC4)cc3F)ccnc2cc1OCCCN1CCOCC1 [Foretinib] (partner 0.25 µM)
Procedure, shortened: as §1

JZL-184 + Lapatinib = compound: C1CN(CCC1C(C2=CC3=C(C=C2)OCO3)(C4=CC5=C(C=C4)OCO5)O)C(=O)OC6=CC=C(C=C6)[N+](=O)[O-] [JZL-184] + CS(=O)(=O)CCNCc1ccc(-c2ccc3ncnc(Nc4ccc(OCc5cccc(F)c5)c(Cl)c4)c3c2)o1 [Lapatinib] (partner 2 µM)
Procedure, shortened: as §1

JZL-184 + Crizotinib = compound: C1CN(CCC1C(C2=CC3=C(C=C2)OCO3)(C4=CC5=C(C=C4)OCO5)O)C(=O)OC6=CC=C(C=C6)[N+](=O)[O-] [JZL-184] + C[C@@H](Oc1cc(-c2cnn(C3CCNCC3)c2)cnc1N)c1c(Cl)ccc(F)c1Cl [Crizotinib] (partner 1 µM)
Procedure, shortened: as §1

JZL-184 + Linsitinib = compound: C1CN(CCC1C(C2=CC3=C(C=C2)OCO3)(C4=CC5=C(C=C4)OCO5)O)C(=O)OC6=CC=C(C=C6)[N+](=O)[O-] [JZL-184] + C[C@]1(O)C[C@@H](c2nc(-c3ccc4ccc(-c5ccccc5)nc4c3)c3c(N)nccn32)C1 [Linsitinib] (partner 1 µM)
Procedure, shortened: as §1

JZL-184 + Alpelisib = compound: C1CN(CCC1C(C2=CC3=C(C=C2)OCO3)(C4=CC5=C(C=C4)OCO5)O)C(=O)OC6=CC=C(C=C6)[N+](=O)[O-] [JZL-184] + Cc1nc(NC(=O)N2CCC[C@H]2C(N)=O)sc1-c1ccnc(C(C)(C)C(F)(F)F)c1 [Alpelisib] (partner 2 µM)
Procedure, shortened: as §1

In the case of NCI-H1648, the relative viability (JZL-184; 0.04 µM) is reported as 0.593, the relative viability (JZL-184; 0.4 µM) is reported as 0.893 and the relative viability (JZL-184; 1.265 µM) is reported as 1.07. The relative viability (JZL-184; 4 µM) was 1.08, the relative viability (JZL-184 + Vorinostat; first compound 0.04 µM) was 0.307 and the relative viability (JZL-184 + Vorinostat; first compound 0.4 µM) was 0.434. For the same cell line, the relative viability (JZL-184 + Vorinostat; first compound 1.265 µM) was 0.754, the relative viability (JZL-184 + Vorinostat; first compound 4 µM) was 0.421 and the relative viability (JZL-184 + Pemetrexed; first compound 0.04 µM) was 0.712. For the same cell line, the relative viability (JZL-184 + Pemetrexed; first compound 0.4 µM) was 0.832, the relative viability (JZL-184 + Pemetrexed; first compound 1.265 µM) was 0.651 and the relative viability (JZL-184 + Pemetrexed; first compound 4 µM) was 0.564. The relative viability (JZL-184 + Olaparib; first compound 0.04 µM) was 1.03, the relative viability (JZL-184 + Olaparib; first compound 0.4 µM) was 0.853 and the relative viability (JZL-184 + Olaparib; first compound 1.265 µM) was 0.783. For the same cell line, the relative viability (JZL-184 + Olaparib; first compound 4 µM) was 0.626, the relative viability (JZL-184 + Tozasertib; first compound 0.4 µM) was 0.491 and the relative viability (JZL-184 + Tozasertib; first compound 1.265 µM) was 0.466. For the same cell line, the relative viability (JZL-184 + Tozasertib; first compound 4 µM) was 0.538, the relative viability (JZL-184 + Decitabine; first compound 0.04 µM) was 0.437 and the relative viability (JZL-184 + Decitabine; first compound 0.4 µM) was 0.551. For the same cell line, the relative viability (JZL-184 + Decitabine; first compound 1.265 µM) was 0.546, the relative viability (JZL-184 + Decitabine; first compound 4 µM) was 0.549 and the relative viability (JZL-184 + Trametinib; first compound 0.04 µM) was 0.402. The relative viability (JZL-184 + Trametinib; first compound 0.4 µM) was 0.413, the relative viability (JZL-184 + Trametinib; first compound 1.265 µM) was 0.481 and the relative viability (JZL-184 + Trametinib; first compound 4 µM) was 0.445. For the same cell line, the relative viability (JZL-184 + Palbociclib; first compound 0.04 µM) was 0.271, the relative viability (JZL-184 + Palbociclib; first compound 0.4 µM) was 0.238 and the relative viability (JZL-184 + Palbociclib; first compound 1.265 µM) was 0.233. It also gave a relative viability (JZL-184 + Palbociclib; first compound 4 µM) of 0.297, a relative viability (JZL-184 + AZD7762; first compound 0.04 µM) of 0.694 and a relative viability (JZL-184 + AZD7762; first compound 0.4 µM) of 0.719. It also gave a relative viability (JZL-184 + AZD7762; first compound 1.265 µM) of 0.824, a relative viability (JZL-184 + AZD7762; first compound 4 µM) of 0.706 and a relative viability (JZL-184 + OSI-027; first compound 0.4 µM) of 0.24. It also gave a relative viability (JZL-184 + OSI-027; first compound 1.265 µM) of 0.257 and a relative viability (JZL-184 + OSI-027; first compound 4 µM) of 0.223.

Cell Line Calu-6 has a relative viability (JZL-184; 0.04 µM) of 1.05, a relative viability (JZL-184; 0.4 µM) of 0.981 and a relative viability (JZL-184; 1.265 µM) of 1.01. It also gave a relative viability (JZL-184; 4 µM) of 0.971, a relative viability (JZL-184 + Bortezomib; first compound 0.04 µM) of 1.11 and a relative viability (JZL-184 + Bortezomib; first compound 0.4 µM) of 0.925. For the same cell line, the relative viability (JZL-184 + Bortezomib; first compound 1.265 µM) was 1, the relative viability (JZL-184 + Bortezomib; first compound 4 µM) was 1.06 and the relative viability (JZL-184 + Pictilisib; first compound 0.04 µM) was 0.993. It also gave a relative viability (JZL-184 + Pictilisib; first compound 0.4 µM) of 0.865, a relative viability (JZL-184 + Pictilisib; first compound 1.265 µM) of 1 and a relative viability (JZL-184 + Pictilisib; first compound 4 µM) of 0.91. For the same cell line, the relative viability (JZL-184 + Navitoclax; first compound 0.04 µM) was 0.845, the relative viability (JZL-184 + Navitoclax; first compound 0.4 µM) was 0.807 and the relative viability (JZL-184 + Navitoclax; first compound 1.265 µM) was 0.852. It also gave a relative viability (JZL-184 + Navitoclax; first compound 4 µM) of 0.798, a relative viability (JZL-184 + Foretinib; first compound 0.04 µM) of 0.946 and a relative viability (JZL-184 + Foretinib; first compound 0.4 µM) of 0.83. The relative viability (JZL-184 + Foretinib; first compound 1.265 µM) was 0.887, the relative viability (JZL-184 + Foretinib; first compound 4 µM) was 0.855 and the relative viability (JZL-184 + Olaparib; first compound 0.04 µM) was 0.565. The relative viability (JZL-184 + Olaparib; first compound 0.4 µM) was 0.495, the relative viability (JZL-184 + Olaparib; first compound 1.265 µM) was 0.534 and the relative viability (JZL-184 + Olaparib; first compound 4 µM) was 0.623. It also gave a relative viability (JZL-184 + Lapatinib; first compound 0.04 µM) of 1.14, a relative viability (JZL-184 + Lapatinib; first compound 0.4 µM) of 1.04 and a relative viability (JZL-184 + Lapatinib; first compound 1.265 µM) of 1.02. The relative viability (JZL-184 + Lapatinib; first compound 4 µM) was 1.1, the relative viability (JZL-184 + Crizotinib; first compound 0.04 µM) was 1.08 and the relative viability (JZL-184 + Crizotinib; first compound 0.4 µM) was 0.709. It also gave a relative viability (JZL-184 + Crizotinib; first compound 1.265 µM) of 0.776, a relative viability (JZL-184 + Crizotinib; first compound 4 µM) of 0.784 and a relative viability (JZL-184 + Linsitinib; first compound 0.04 µM) of 0.984. It also gave a relative viability (JZL-184 + Linsitinib; first compound 0.4 µM) of 0.95, a relative viability (JZL-184 + Linsitinib; first compound 1.265 µM) of 0.985 and a relative viability (JZL-184 + Linsitinib; first compound 4 µM) of 0.906. It also gave a relative viability (JZL-184 + Alpelisib; first compound 0.04 µM) of 1.17, a relative viability (JZL-184 + Alpelisib; first compound 0.4 µM) of 0.984 and a relative viability (JZL-184 + Alpelisib; first compound 1.265 µM) of 0.98. It also gave a relative viability (JZL-184 + Alpelisib; first compound 4 µM) of 0.886.
